This assay concerns mice, P1798 lymphosarcoma sc, survival or tumor weight T/C. In words: NCI In Vivo Anticancer Drug Screen. Data for tumor model P1798 Lymphosarcoma (subcutaneous) in unknown mice. The procedure: The antitumor activity of compounds was measured in mice bearing transplantable tumors. Survival or tumor size were measured and the results are expressed as the measurement made in the treated group (T) divided by the measurement made in the vehicle treated control group (C). The tumor model used in this assay is P1798 Lymphosarcoma (subcutaneous) in unknown mice

Results filed as inconclusive are left out.

For the molecule `COc1cccc2c1C(=O)c1c(O)c3c(c(O)c1C2=O)C[C@@](O)(C(=O)CO)C[C@@H]3OC1CC(N)C(O)C(C)O1` (stereo partly drawn), the T/C (endpoint: median survival time, dose: 0.25 mg/kg/injection, schedule: Q01DX010 (ip), vehicle: water, higher = longer survival) is 84 % of control; the T/C (endpoint: median survival time, dose: 0.5 mg/kg/injection, schedule: Q01DX010 (ip), vehicle: water, higher = longer survival) was 102 % of control; the T/C (endpoint: median survival time, dose: 1.0 mg/kg/injection, schedule: Q01DX010 (ip), vehicle: water, higher = longer survival) is 93 % of control; the T/C (endpoint: median survival time, dose: 1.0 mg/kg/injection, schedule: Q04DX007 (ip), vehicle: water, higher = longer survival) was 108 % of control; the T/C (endpoint: median survival time, dose: 2.0 mg/kg/injection, schedule: Q01DX010 (ip), vehicle: water, higher = longer survival) is 36 % of control; the T/C (endpoint: median survival time, dose: 2.0 mg/kg/injection, schedule: Q04DX007 (ip), vehicle: water, higher = longer survival) is 107 % of control. For the setting “endpoint: median survival time, dose: 4.0 mg/kg/injection, schedule: Q01DX010 (ip), vehicle: water, higher = longer survival”, the T/C is 28 % of control.
In the case of `CCC(=O)O[C@H]1CC[C@H]2[C@@H]3CCC4=CC(=O)CC[C@]4(C)[C@H]3CC[C@]12C`, the T/C is, setting by setting: (endpoint: mean tumor weight, dose: 150.0 mg/kg/injection, schedule: Q01DX010 (sc), vehicle: steriod suspending solution, higher = larger tumour) 108 % of control; (endpoint: mean tumor weight, dose: 300.0 mg/kg/injection, schedule: Q01DX010 (sc), vehicle: steriod suspending solution, higher = larger tumour) 116 % of control; (endpoint: mean tumor weight, dose: 600.0 mg/kg/injection, schedule: Q01DX010 (sc), vehicle: steriod suspending solution, higher = larger tumour) 104 % of control.
Turning to `S=P(N1CC1)(N1CC1)N1CC1`, the T/C is, setting by setting: (endpoint: mean tumor weight, dose: 0.63 mg/kg/injection, schedule: Q01DX010 (ip), vehicle: saline, higher = larger tumour) 95 % of control; (endpoint: mean tumor weight, dose: 1.25 mg/kg/injection, schedule: Q01DX010 (ip), vehicle: saline, higher = larger tumour) 64 % of control; (endpoint: mean tumor weight, dose: 2.5 mg/kg/injection, schedule: Q01DX010 (ip), vehicle: saline, higher = larger tumour) 24 % of control; (endpoint: median survival time, dose: 0.75 mg/kg/injection, schedule: Q01DX010 (sc), vehicle: water, higher = longer survival) 97 % of control; (endpoint: median survival time, dose: 1.5 mg/kg/injection, schedule: Q01DX010 (sc), vehicle: water, higher = longer survival) 105 % of control; (endpoint: median survival time, dose: 3.0 mg/kg/injection, schedule: Q01DX010 (sc), vehicle: water, higher = longer survival) 103 % of control. Further, the T/C is, setting by setting: (endpoint: median survival time, dose: 6.0 mg/kg/injection, schedule: Q01DX010 (sc), vehicle: water, higher = longer survival) 47 % of control; (endpoint: median survival time, dose: 12.0 mg/kg/injection, schedule: Q01DX010 (sc), vehicle: water, higher = longer survival) 27 % of control.

Values taken from PubChem BioAssay AID290 (DTP/NCI, 2004).
